The record followed here is patent publication US9314458B2, “Topical use of ingenol-3-angelate or a salt thereof to treat skin cancer” (LEO Laboratories Limited, priority 2000, dated 2016).

In one assay the test system is rat brain PKC. Put plainly: PKC kinase activity, PepTag non-radioactive protein kinase assay. The conditions noted are these: PepTag gel; various dilutions of TPA; ether extract final dilution 1 in 5; crude sap and aqueous layer diluted 1/25. The format is biochemical.
The test system of assay [1] is peripheral blood mononuclear cells. Put plainly: Phagocytosis with fluorescent beads. The format is cell-based. Particulars: 30 min, whole heparinized blood. As for the experimental part:
Phagocytosis by peripheral blood mononuclear cells (PBMCs) was assayed (Steinkamp et al., 1982) using 1 μm Fluoresbrite™ yellow-green fluorescent latex spheres (Polysciences, Inc., Warrington, Pa.). A sample of whole, heparinized blood was treated with drug and 5×10E7 fluorescent latex beads in 10 μL of PBS added per mL of suspension. Cells were incubated and maintained in suspension for 30 min by means of a shaker platform at 37° C. The stimulated and non-stimulated samples were then lysed to isolate PBMCs. The PBMCs were run on the flow cytometer measuring FITC (excitation at 488 nm, emission at 525±20 nm), gated for fluorescence (phagocytosed spheres) and light scatter (cell size).

The next assay addresses T1, PKCθ (Homo sapiens, UniProt Q04759).
T1 construct: host or cells: HeLa cells
As to the kind of experiment: EGFP-PKC translocation in HeLa cells (PKCθ). The conditions noted are these: one hour, same concentrations. It is filed as cell-based. The protocol: (§1) Five EGFP-PKC isoforms (Clontech) were available for this experiment, enabling the screening of the three predominant PKC families (i.e. classical, novel and atypical PKCs). The members of the various PKC families are α, β, and γ (classical), θ (novel) and ζ (atypical).
(§2) HeLa cells were plated out in a 24-well plate containing coverslips and transfected with PKC isoforms fused to EGFP, using a commercially available effectine-transfection kit (QIAGEN, Pty. Ltd.). Cells were exposed to the transfection reagents for 16-24 hr. Subsequently, transfected cells were treated for one hour with TPA (100 ng/mL), bryostatin-1 (5 pg/mL), PEP003 (2.25 μg/mL; 5 μM) or PEP005 ([…]) 1.5 μM). Following treatment, cells were fixed on coverslips and mounted on glass slides. The slides were subsequently examined visually by fluorescence microscopy, photographed, and over 150 cells were counted/treatment/PKC isoform. Counted cells were classified according to the localisation of the PKC-EGFP fluorescence as either cytoplasmic or plasma membrane using ImagePro™ 4.1 (FIG. 5). […] The number of these cells was also counted. Results are presented as an average and standard deviation of percentages of cells (Table 1).

The target in the next assay is T2, PKCβ (Homo sapiens, UniProt P05771).
T2 construct: host or cells: HeLa cells
T2 sequence (P05771 whole entry, species assumed): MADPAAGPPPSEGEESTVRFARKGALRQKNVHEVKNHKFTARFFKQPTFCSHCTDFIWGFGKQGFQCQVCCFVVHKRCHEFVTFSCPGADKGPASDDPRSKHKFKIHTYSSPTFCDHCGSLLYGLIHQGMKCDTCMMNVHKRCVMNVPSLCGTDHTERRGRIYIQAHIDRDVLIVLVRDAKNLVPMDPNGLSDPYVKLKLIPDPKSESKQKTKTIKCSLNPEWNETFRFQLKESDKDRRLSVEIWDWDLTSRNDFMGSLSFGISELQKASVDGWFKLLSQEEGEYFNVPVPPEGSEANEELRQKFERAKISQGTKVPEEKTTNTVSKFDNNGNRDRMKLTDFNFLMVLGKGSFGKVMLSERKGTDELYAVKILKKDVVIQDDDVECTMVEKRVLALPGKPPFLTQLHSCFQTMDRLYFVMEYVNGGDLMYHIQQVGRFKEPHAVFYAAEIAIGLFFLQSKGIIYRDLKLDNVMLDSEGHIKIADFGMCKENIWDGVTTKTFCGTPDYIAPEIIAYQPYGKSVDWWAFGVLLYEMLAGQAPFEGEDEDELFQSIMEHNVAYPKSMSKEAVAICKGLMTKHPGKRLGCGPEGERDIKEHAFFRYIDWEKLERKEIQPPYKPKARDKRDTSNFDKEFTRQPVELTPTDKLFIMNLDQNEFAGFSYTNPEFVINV
As to the kind of experiment: EGFP-PKC translocation in HeLa cells (PKCβ). Particulars: one hour. It is filed as cell-based. The protocol:
as §1, §2

Assay [2] deals with Human peripheral blood mononuclear cells. Put plainly: Phagocytic activity, nitroblue tetrazolium uptake. The format is cell-based. Particulars: 100 ng/mL, 20 min; controls <2%. As for the experimental part:
Human peripheral blood mononuclear cells (PBMC) prepared by standard Ficoll separation comprise approximately 5% monocytes. PBMC were incubated with dihydroethidium, a reduced form of the dye which becomes fluorescent when oxidized by a respiratory burst, then treated in 10% FCS-RPMI 1640 at 37° C. for 15 min with crude E. peplus extract diluted 1/1000 or 100 ng/mL TPA and analyzed by flow cytometry using conventional methods (Handbook of Flow Cytometry Methods, p. 151). The mean channel numbers for fluorescence were 618 (controls) and 818 (E. peplus extract diluted 1/1000). […] Phagocytic activity was determined by a conventional method (Hudson and Hay, Practical Immunology, 3rd edition, p. 74). […] The average of three fields gave figures of <2% (controls), 10% (TPA) and 8.7% (E. peplus sap) cells stained blue.

T1 sequence (Q04759 whole entry): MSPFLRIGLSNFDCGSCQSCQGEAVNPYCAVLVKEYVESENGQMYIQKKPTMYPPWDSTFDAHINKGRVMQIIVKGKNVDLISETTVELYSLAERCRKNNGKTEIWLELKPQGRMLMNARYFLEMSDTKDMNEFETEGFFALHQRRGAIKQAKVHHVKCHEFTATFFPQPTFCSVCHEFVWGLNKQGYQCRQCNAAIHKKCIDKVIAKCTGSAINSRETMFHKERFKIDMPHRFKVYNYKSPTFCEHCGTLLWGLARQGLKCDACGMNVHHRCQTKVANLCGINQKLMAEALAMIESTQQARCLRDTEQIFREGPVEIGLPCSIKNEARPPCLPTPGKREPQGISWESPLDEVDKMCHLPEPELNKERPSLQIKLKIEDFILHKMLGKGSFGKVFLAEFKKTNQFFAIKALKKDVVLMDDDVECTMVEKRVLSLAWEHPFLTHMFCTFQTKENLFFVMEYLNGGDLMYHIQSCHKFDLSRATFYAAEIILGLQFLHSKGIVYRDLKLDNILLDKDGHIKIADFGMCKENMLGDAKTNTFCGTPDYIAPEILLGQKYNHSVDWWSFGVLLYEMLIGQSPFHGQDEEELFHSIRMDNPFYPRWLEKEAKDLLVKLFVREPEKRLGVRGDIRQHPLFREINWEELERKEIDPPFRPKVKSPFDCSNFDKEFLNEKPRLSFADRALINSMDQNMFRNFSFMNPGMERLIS
Method for rat brain PKC: The kinase activity of rat brain PKC (Promega) was determined using the Peptag™ Non-Radioactive Protein Kinase Kit (Promega). Using agarose gel electrophoresis the technique visualises the opposing electrostatic charge of a fluorescently labeled peptide ([sequence]) compared to the phosphorylated version of the same peptide.
The reaction mixture was separated by gel electrophoresis, showing migration of the unreacted substrate (a) to the anode (top), and the product (b), which is more negatively charged because of phosphorylation by PKC, moving towards the cathode (bottom).

`CCCCCCCCCCCCCC(=O)O[C@@H]1[C@@H](C)[C@@]2(O)[C@@H](C=C(CO)C[C@]3(O)C(=O)C(C)=C[C@@H]23)C2C(C)(C)[C@@]21OC(C)=O` (single isomer, unassigned) [TPA]: the “activation of PKC (FIG. 1)” value with rat brain PKC was “showed activation of PKC”. In addition, the “phagocytosis of fluorescent latex spheres in PBMCs” value in assay [1] is “stimulate phagocytosis”. Moreover, the “translocation of PKCθ” value at PKCθ was “translocated”. For the same molecule, the “number of PKCβ transfected cells with Golgi-like fluorescence” value on PKCβ is recorded as “increase in Golgi-like fluorescence”. Besides, the “translocation of PKCβ from cytoplasm to plasma membrane” value at PKCβ (TPA 100 ng/mL, bryostatin-1 5 pg/mL, PEP003 2.25 μg/mL (5 μM), PEP005 670 μg/mL (1.5 μM)) was “translocated from the cytoplasm to the plasma membrane”. Further, the “cells stained blue (NBT)” value in assay [2] was determined as 10%.
